Reference: US7989495B2, “Compositions and methods for inhibiting NF-κB mediated tumorigenicity and adhesion dependent survival of cancer cells” (University of Utah Research Foundation, priority 2002, dated 2011)
Entries after “also recorded” stand apart in the source; their conditions may differ.

What was measured:
[1] = test system: IκB phosphorylation; details: Pierce et al., 1997; cited from earlier work
[2] = test system: transiently suspended DLD-1 cells; test: Apoptosis (annexin V) of transiently suspended cells allowed to readhere; type: cell-based
Protocol: The transiently suspended cells were lysed and allowed to bind to DNA oligonucleotides, containing the NF-κB consensus binding site, that were immobilized to 96-well plates. NF-κB protein bound to the oligonucleotides was detected by an antibody to the p65 subunit that only recognized p65 that is bound to DNA. The positive control was HeLa cells that were stimulated with TNFα A control was performed using excess free NF-κB oligonucleotides (Competitor). […] NF-κB binding activity was determined by the TransAM assay as in FIG. 5A. […] The data shown represent typical results of three separate experiments. […] An immunoblot for COX-2 was performed.
(§1) Single cell suspensions were plated at 100,000 cells per well in 24-well plates in media containing DMSO, BAY 11-7082, BAY 11-7085, or MG-132 for 8-24 hours in an incubator. Alternatively, DMSO, BAY 11-7082, BAY 11-7085, or MG-132 were added to cells that were confluent and adherent for several days. The nonadherent cells were aspirated off with the media and spun for 3 minutes at 2,000 rpm in 15 ml polypropylene tubes. The adherent cells were washed twice with PBS, dispersed in trypsin, and spun down for 3 minutes at 2,000 rpm in 15 ml polypropylene tubes. The nonadherent and adherent cells were resuspended in 1× binding buffer (10 mM HEPES/NaOH, pH 7.4, 140 mM NaCl, and 2.5 mM CaCl2) to a final concentration of 10^6 cells/ml. 100 μl of the cell solution were transferred to a 5 ml culture tube and incubated with 5 μl of annexin V-FITC-conjugated monoclonal antibody (Pharmingen) and 10 μl of propidium iodide (from a 50 μg/ml stock solution made in PBS) in the dark at 25° C. for 15 minutes. 400 μl of binding buffer was added to each tube and the cells were analyzed by flow cytometry immediately. The percent of apoptosis was determined as the percent of annexin V-positive, propidium iodide-negative cells of the total cells counted.
Since trypsin can activate protease-activated receptor-2 in colon cancer cell lines, which then results in increased cell proliferation, (Darmoul et al., 2001) NF-κB activation was determined in adherent and confluent DLD-1, HCT-116, Caco-2 and HT-29 cells that were removed from plastic dishes by trypsin or scraping. […] To determine whether the transient activation of NF-κB caused by cell readhesion would render all of the colon cancer cells tested more susceptible to BAY 11-7085-induced apoptosis, DLD-1, HCT-116, Caco-2 and HT-29 colon cancer cell lines were transiently suspended, treated with BAY 11-7085 and allowed to readhere.

[3] = test system: HT-29 cells; test: Soft agar colony formation assay (anchorage-independent proliferation); type: cell-based; details: 10 μM, 6 days in soft agar
Protocol: (§2) DLD-1, HCT-116, and HT-29 cells were cultured for 6 days in soft agar in the presence of DMSO (control), 10 μM BAY 11-7082, or 10 μM BAY 11-7085. The data points represent the means of colony counts per field (20×) performed in 5 different regions of the culture dishes. The data shown represent a typical result of two separate experiments. FIGS. 2B,C, show athymic mice received subcutaneous injections of HT-29 (B) or HCT-116 (C) cells, followed by […] of BAY 11-7085 (dark bars) or DMSO (white bars) intraperitoneally twice weekly. The bars represent the 25-75% ranges of the tumor volumes and the horizontal lines in the bars are the medians. Using the Kruskal-Wallace statistical test to compare the median tumor volumes between BAY 11-7085 and DMSO yielded a p-value of 0.005 for HT-29 cells but >0.05 for HCT-116 cells.
(§3) Anchorage-independent cell growth is a hallmark of cancer cells and is a good correlate to tumorigencity in vivo. Therefore, the effects of BAY 11-7082 and BAY 11-7085 were examined on colon cancer cell growth using the soft agar colony formation assay.

[4] = test system: DLD-1 cells; test: as above; type: cell-based; details: 10 μM, 6 days in soft agar
Protocol: as §2, §3

[5] = test system: adherent HT-29 cells; test: Apoptosis assay (annexin V-FITC / propidium iodide flow cytometry), adherent cells; type: cell-based; details: for level of apoptosis (annexin V-positive, propidium iodide-negative cells): doses up to 20 μM (MG-132 20 μM), 24 hours
Protocol: The data points represent the average percent of annexin V-positive, propidium iodide-negative cells (of the total cells counted) from triplicate experiments. The error bars represent the standard error of the means. […] The results shown are a graphic representation of individual flow cytometry results expressed as the percentage of cells that were annexin V-positive of those that excluded propidium iodide. […] An immunoblot of the lysates for cleaved PARP was performed. Each lane represents equal total protein concentrations. […] The cells were allowed to adhere to plastic dishes for 1 hour after which they were washed gently in PBS and stained with crystal violet. The crystal violet stained cells were solubilized in deoxycholate and the absorbance detected in a spectrophotometer at 590 nm. The adherent cells were expressed as a fraction of the controls Each data point represents the average of triplicate experiments and the error bars the standard errors of the means.
as §1

[6] = test system: DLD-1 colon cancer cell line; test: Cell proliferation assay (crystal violet, 590 nm); type: cell-based
Protocol: (§4) DLD-1, HCT-116, and HT-29 colon cancer cell lines were obtained from the ATCC collection and were cultured in Dulbecco's Modification of Eagle's Medium supplemented with 10% fetal bovine serum, glutamine, penicillin, and streptomycin. 293 cells stably transfected with COX-2 (293-COX-2) under the control of a ponasterone sensitive promoter were cultured in Dulbecco's Modification of Eagle's Medium supplemented with 10% fetal bovine serum, 400 μg/ml of zeocin, 400 μg/ml of G418, glutamine, penicillin, and streptomycin. For induction of COX-2 protein expression, 293-COX-2 cells were cultured for 48 hours in media supplemented with 1 μg/ml of ponasterone. All cells were cultured at 37° C. in a humidified incubator with a 5% CO2 atmosphere.
(§5) For the cell proliferation assay, cells were dispersed and plated at 40,000 cells/well in 96-well dishes. At various days in culture, the cells were gently washed twice with 100 μl/well of ice-cold blocking buffer (1% radioimmunoassay grade BSA in PBS) and twice with 100 μl/well of ice-cold PBS. The cells were fixed for 10 min in 100% ice-cold methanol (100 μl/well), then allowed to air-dry. The cells were stained with 100μl/well of 0.1% crystal violet in H2O for 10 minutes, then washed gently four times with dd H20 and four times with PBS. The plates were then air-dried completely. The stained cells were then solubilized in 1% sodium deoxycholate, and the plates read at 590 nm in a spectrophotometer. The absorption at 590 nm is proportional to the number of attached cells.

[7] = test system: HCT-116 colon cancer cell line; test: Cell proliferation assay (crystal violet, 590 nm); type: cell-based
Protocol: as §4, §5

[8] = summary statement, concentration not given
[9] = HT-29, increasing concentrations, 8 hours, 24 h

Compound	effect on IκB phosphorylation [1]	share of transiently suspended, readhering cells that became apoptotic [2]	inhibition of anchorage-independent proliferation [3]	inhibition of anchorage-independent proliferation [4]	level of apoptosis (annexin V-positive, propidium iodide-negative cells) ([5]; adherent HT-29)	inhibition of growth of cancer cell line [6, 8]	inhibition of growth of cancer cell line [7, 8]	in vitro apoptotic threshold during readhesion [2]	BAY 11-7085-induced apoptosis during readhesion ([2]; transiently suspended, treated, allowed to readhere 8 hours)	percentage of apoptosis in the non-adherent cell fraction at high vs lower concentrations ([5]; HT-29, 50 and 100 μM, cells annexin V and propidium iodide positive (necrotic))	percentage of apoptotic cells among cells that became non-adherent [5, 9]	percentage of apoptotic cells among cells that remained adherent [5, 9]	apoptosis of adherent cell monolayers compared with transiently suspended cells ([5]; adherent HT-29, even the highest doses (10-100 μM))	inhibition of cell proliferation ([6]; 10 μM, cultured 8 days)	inhibition of cell proliferation ([7]; 10 μM, cultured 8 days)
Cc1ccc(S(=O)(=O)/C=C/C#N)cc1 [BAY 11-7082, (2E)-3-(tolysulfonyl)-2-propenenitrile]	inhibit	vast majority	significantly inhibited	significantly inhibited	caused an increase in the level of apoptosis	inhibits growth	inhibits growth	–	–	–	–	–	–	–	–
CC(C)(C)c1ccc(S(=O)(=O)/C=C/C#N)cc1 [BAY 11-7085, (2E)-3-[4-(tertiarybutylphenyl)sulfonyl]-2-propenenitrile]	inhibit	vast majority	significantly inhibited	significantly inhibited	relatively greater for MG-132 than BAY 11-7085; also recorded: caused an increase in the level of apoptosis	–	–	> 20 µM	showed the same propensity for BAY 11-7085-induced apoptosis	decreased	majority; also recorded: predominantly apoptotic	only a minority	only a relatively small degree of apoptosis	greatly inhibited cell proliferation	greatly inhibited cell proliferation
